# Structures can show the parent of a compound that is named as a salt. Where two headings read alike, the source gives them in different places.
# What was measured:
# Assay type in all cases: biochemical
# [1] = target: T1, recombinant PRL-1 (Homo sapiens, UniProt Q93096); test: In vitro phosphatase assay (DiFMUP hydrolysis), PRL-1; note: test concentration or dose not given here
# T1 construct: 6xHis (N, cleaved yes); made in house; host or cells: E. coli One Shot BL21 Star
# T1 sequence (Q93096 1-173): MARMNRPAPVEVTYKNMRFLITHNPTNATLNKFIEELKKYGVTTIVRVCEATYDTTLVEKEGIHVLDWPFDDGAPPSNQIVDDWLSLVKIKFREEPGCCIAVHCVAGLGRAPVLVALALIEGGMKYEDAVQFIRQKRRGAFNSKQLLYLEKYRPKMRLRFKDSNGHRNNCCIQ
# [2] = target: T2, recombinant PRL-2 (Homo sapiens, UniProt Q12974); test: In vitro phosphatase assay (DiFMUP hydrolysis), PRL-2;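 note: PRL-2 activity read as DiFMUP hydrolysis after 20 min at room temperature with drug, enzyme first pre-reduced at 4 °C for 20 min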
# T2 construct: 6xHis (N, cleaved yes); made in house; host or cells: E. coli One Shot BL21 Star
# T2 sequence (Q12974 1-167): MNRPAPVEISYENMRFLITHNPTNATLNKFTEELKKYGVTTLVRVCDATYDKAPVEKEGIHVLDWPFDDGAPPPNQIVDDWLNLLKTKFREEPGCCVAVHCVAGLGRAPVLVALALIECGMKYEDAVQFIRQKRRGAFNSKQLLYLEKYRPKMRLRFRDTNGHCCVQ
# Method: Briefly, protein was diluted in reaction buffer and allowed to incubate at 4 °C for 20 min to allow for full reduction of the active site. DiFMUP, drug, and protein were added, and plates were incubated for 20 min at room temperature. Fluorescence intensities were measured on a Cytation 5 plate reader (Biotek) at an EX:360 nm and EM:460 nm. […] Inhibition selectivity for PRLs over a panel of other phosphatases was determined using PhosphataseProfiler (Eurofins, Cat # PP260).
# [3] = target: T3, recombinant PRL-3 (Homo sapiens, UniProt O75365); test: In vitro phosphatase assay (DiFMUP hydrolysis), PRL-3; note: test concentration or dose not given here
# T3 construct: 6xHis (N, cleaved yes); made in house; host or cells: E. coli One Shot BL21 Star
# T3 sequence (O75365 whole entry): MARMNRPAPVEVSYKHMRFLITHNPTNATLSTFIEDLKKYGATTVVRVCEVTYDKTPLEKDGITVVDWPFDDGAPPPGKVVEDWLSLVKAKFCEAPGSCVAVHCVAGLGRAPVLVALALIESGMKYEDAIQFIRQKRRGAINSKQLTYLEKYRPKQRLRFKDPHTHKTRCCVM
# [4] = FDA-approved drug screen, compared to DMSO
# [5] = FDA-approved drug screen, activity compared to DMSO
Molecule,"% Phosphatase Activity (compared to DMSO) PRL-1 [1, 4] [%]","% Phosphatase Activity (compared to DMSO) PRL-2 [2, 4] [%]","% Phosphatase Activity (compared to DMSO) PRL-3 [3, 4] [%]",other results
NC(=O)N1CCC(CC(=O)N2CCC([C@H]3c4ncc(Br)cc4CCc4cc(Cl)cc(Br)c43)CC2)CC1 [Lonafarnib],97,103,97,
CC1(C)S[C@@H]2[C@H](NC(=O)[C@H](N)c3ccccc3)C(=O)N2[C@H]1C(=O)O [Ampicillin sodium],120,127,92,
CC(=O)OC1CN2CCC1CC2 (stereo not drawn) [Aceclidine HCl],97,95,85,
CCN(c1cc(-c2ccc(CN3CCOCC3)cc2)cc(C(=O)NCc2c(C)cc(C)[nH]c2=O)c1C)C1CCOCC1 [EPZ-6438],85,77,95,
CCOc1nc2cccc(C(=O)O)c2n1Cc1ccc(-c2ccccc2-c2nc(=O)o[nH]2)cc1 [Azilsartan],111,130,101,
CN1CCN(C2=Nc3ccccc3Oc3ccc(Cl)cc32)CC1 [Loxapine Succinate],96,110,90,
CS(=O)(=O)c1ccc(C2=C(c3ccccc3)C(=O)OC2)cc1 [Rofecoxib],110,120,92,
NCCCCCC(=O)O [(6-)ε-Aminocaproic acid],110,115,75,
C[C@H](NC(=O)C(=O)Nc1ccccc1C(C)(C)C)C(=O)N[C@@H](CC(=O)O)C(=O)COc1c(F)c(F)cc(F)c1F [Emricasan],95,72,95,
COC(=O)Nc1nc2cc(C(=O)c3ccc(F)cc3)ccc2[nH]1 [Flubendazole],91,103,92,
CNCCc1ccccn1.Cl.Cl [Betahistine 2HCl],93,96,87,
CC12CCC(CC1=O)C2(C)C (stereo not drawn) [(+)-Camphor],116,132,104,
Cc1nc(-c2ccc(OCC(C)C)c(C#N)c2)sc1C(=O)O [Febuxostat],95,85,89,
O=C(NC(Cc1cc(=O)[nH]c2ccccc12)C(=O)O)c1ccc(Cl)cc1 (stereo not drawn) [Rebamipide],88,93,92,
"C[C@@H]1CCN(C(=O)CC#N)C[C@@H]1N(C)c1ncnc2[nH]ccc12 [Tofacitinib (CP-690550,Tasocitinib)]",,,,"% Phosphatase Activity (compared to DMSO) PRL-1 [1, 5]: 117%; % Phosphatase Activity (compared to DMSO) PRL-2 [2, 5]: 114%; % Phosphatase Activity (compared to DMSO) PRL-3 [3, 5]: 96%"
17-Hydroxyprogesterone,86,77,86,
Cc1ccc(-c2cc(C(F)(F)F)nn2-c2ccc(S(N)(=O)=O)cc2)cc1 [Celecoxib],92,81,71,
CC1(C)[C@@H](OC(=O)CCC(=O)O)CC[C@]2(C)[C@H]3C(=O)C=C4[C@@H]5C[C@@](C)(C(=O)O)CC[C@]5(C)CC[C@@]4(C)[C@]3(C)CC[C@@H]12 [Carbenoxolone Sodium],85,73,84,
CCN(CC)CCOC(=O)c1ccc(N)cc1 [Procaine],102,94,80,
CC1(C)Cc2c(-c3ccccc3)c(-c3ccc(Cl)cc3)c(CC(=O)O)n2C1 [Licofelone],80,85,69,
COc1ccc(-n2nc(C(N)=O)c3c2C(=O)N(c2ccc(N4CCCCC4=O)cc2)CC3)cc1 [Apixaban],102,132,80,

Molecule,"% Phosphatase Activity (compared to DMSO) PRL-1 [1, 4] [%]","% Phosphatase Activity (compared to DMSO) PRL-2 [2, 4] [%]","% Phosphatase Activity (compared to DMSO) PRL-3 [3, 4] [%]",other results
COc1cc(C(=O)O)ccc1NC(=O)[C@@H]1N[C@@H](CC(C)(C)C)[C@](C#N)(c2ccc(Cl)cc2F)[C@H]1c1cccc(Cl)c1F [Idasanutlin (RG-7388)],7,15,2,
C/C(O)=C(\C#N)C(=O)Nc1ccc(C(F)(F)F)cc1 [Teriflunomide],,,,"% Phosphatase Activity (compared to DMSO) PRL-1 [1, 5]: 95%; % Phosphatase Activity (compared to DMSO) PRL-2 [2, 5]: 98%; % Phosphatase Activity (compared to DMSO) PRL-3 [3, 5]: 84%"
CCOC(=O)[N-]c1cn(N2CCOCC2)n[o+]1 [Molsidomine],99,110,79,
Nc1cccc2c1C(=O)N(C1CCC(=O)NC1=O)C2=O (stereo not drawn) [Pomalidomide],264,248,204,
OC(CCN1CCCCC1)(c1ccccc1)C1CCCCC1 (stereo not drawn) [Trihexyphenidyl hydrochloride],,,,% Phosphatase Activity (compared to DMSO) PRL-1 [1]: 100%; % Phosphatase Activity (compared to DMSO) PRL-2 [2]: 98%; % Phosphatase Activity (compared to DMSO) PRL-3 [3]: 106%
CCN(CC)C(=S)SSC(=S)N(CC)CC [Disulfiram],103,100,78,
CN1CCN(c2cc3c(cc2F)c(=O)c(C(=O)O)cn3-c2ccc(F)cc2)CC1 [Difloxacin HCl],99,102,114,
S=c1nc[nH]c2nc[nH]c12 [Mercaptopurine (6-MP)],93,76,74,
NC[C@H]1O[C@H](O[C@H]2[C@H](O)[C@@H](O[C@H]3O[C@H](CO)[C@@H](O)[C@H](N)[C@H]3O)[C@H](N)C[C@@H]2N)[C@H](N)C[C@@H]1O [Tobramycin],,,,"% Phosphatase Activity (compared to DMSO) PRL-1 [1, 5]: 99%; % Phosphatase Activity (compared to DMSO) PRL-2 [2, 5]: 97%; % Phosphatase Activity (compared to DMSO) PRL-3 [3, 5]: 91%"
CC1(C)[C@H](C(=O)O)N2C(=O)C[C@H]2S1(=O)=O [Sulbactam],,,,"% Phosphatase Activity (compared to DMSO) PRL-1 [1, 5]: 95%; % Phosphatase Activity (compared to DMSO) PRL-2 [2, 5]: 91%; % Phosphatase Activity (compared to DMSO) PRL-3 [3, 5]: 81%"
CN(C)CCC=C1c2ccccc2CCc2ccccc21 [Amitriptyline HCl],92,101,89,
Cc1cc(=O)[nH]c(=S)[nH]1 [Methylthiouracil],110,93,75,
CC(C)(C)NC[C@H](O)COc1nsnc1N1CCOCC1 [Timolol Maleate],,,,"% Phosphatase Activity (compared to DMSO) PRL-1 [1, 5]: 107%; % Phosphatase Activity (compared to DMSO) PRL-2 [2, 5]: 111%; % Phosphatase Activity (compared to DMSO) PRL-3 [3, 5]: 87%"
Cl.N[C@@H]1C[C@H]1c1ccccc1 (racemic) [Tranylcypromine (2-PCPA) HCl],,,,% Phosphatase Activity (compared to DMSO) PRL-1 [1]: 111%; % Phosphatase Activity (compared to DMSO) PRL-2 [2]: 110%; % Phosphatase Activity (compared to DMSO) PRL-3 [3]: 87%
COc1ncc(-c2ccc3nccc(-c4ccnnc4)c3c2)cc1NS(=O)(=O)c1ccc(F)cc1F [GSK2126458 (GSK458)],94,85,88,
CCc1cc(/C(C)=N/OCc2ccc(C3CCCCC3)c(C(F)(F)F)c2)ccc1CN1CC(C(=O)O)C1 [BAF312 (Siponimod)],99,87,101,
CC(=O)NS(=O)(=O)c1ccc(N)cc1 [Sulfacetamide Sodium],,,,"% Phosphatase Activity (compared to DMSO) PRL-1 [1, 5]: 91%; % Phosphatase Activity (compared to DMSO) PRL-2 [2, 5]: 109%; % Phosphatase Activity (compared to DMSO) PRL-3 [3, 5]: 74%"
O=N[O-].[Na+] [Sodium Nitrite],,,,% Phosphatase Activity (compared to DMSO) PRL-1 [1]: 94%; % Phosphatase Activity (compared to DMSO) PRL-2 [2]: 116%; % Phosphatase Activity (compared to DMSO) PRL-3 [3]: 75%
Cc1cccc(Cc2c[nH]cn2)c1C [Detomidine HCl],88,107,81,
CCCN(CCC)C(=O)C1=Cc2ccc(-c3ccc(C(=O)N4CCCC4)cc3)cc2N=C(N)C1 [Motolimod (VTX-2337)],103,90,106,

# From PMC8119466, “A screen of FDA-approved drugs identifies inhibitors of protein tyrosine phosphatase 4A3 (PTP4A3 or PRL-3)” (Scientific Reports, 2021)
